Results reported in US5712300A, “Hydroxamic acid derivatives useful for the treatment of diseases related to connective tissue degradation” (priority 1997, dated 1998).
Structures can show the parent of a compound that is named as a salt.

Experiments:
Type in all cases: biochemical
Collagenase = target: T1, Collagenase (Homo sapiens, UniProt P03956); test: MMP inhibition by particle concentration fluorescence technique (collagenase); details: pH 7.5; 15 min enzyme preincubation; substrate 1-3 h at room temperature; read-out: MMP Inhibition Constants, Collagenase Ki
T1 sequence (P03956 100-469): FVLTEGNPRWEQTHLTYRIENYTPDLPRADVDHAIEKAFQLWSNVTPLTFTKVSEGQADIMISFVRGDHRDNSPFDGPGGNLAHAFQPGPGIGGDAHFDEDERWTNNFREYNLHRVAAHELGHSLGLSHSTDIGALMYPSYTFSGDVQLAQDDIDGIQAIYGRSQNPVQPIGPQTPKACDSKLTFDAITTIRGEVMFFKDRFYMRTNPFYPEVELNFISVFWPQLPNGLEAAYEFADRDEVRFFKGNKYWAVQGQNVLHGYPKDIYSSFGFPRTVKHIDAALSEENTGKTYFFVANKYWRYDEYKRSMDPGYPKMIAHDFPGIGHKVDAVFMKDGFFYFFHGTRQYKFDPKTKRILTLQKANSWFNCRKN
In short: (§1)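 Compound serially diluted two-fold in 50 mM Tris-HCl pH 7.5, 150 mM NaCl, preincubated 15 min with activated enzyme at room temperature. Fluorescein/biotin-tagged substrate then added for 1-3 hours in the dark. Intact substrate captured on avidin-coated particles; fluorescence signal indicates inhibition.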

Stromelysin = Stromelysin (Homo sapiens, UniProt P08254); test: MMP inhibition by particle concentration fluorescence technique (stromelysin); details: pH 7.5; 15 min enzyme preincubation; substrate 1-3 h at room temperature; read-out: MMP Inhibition Constants, Stromelysin Ki
Sequence of Stromelysin (P08254 100-477): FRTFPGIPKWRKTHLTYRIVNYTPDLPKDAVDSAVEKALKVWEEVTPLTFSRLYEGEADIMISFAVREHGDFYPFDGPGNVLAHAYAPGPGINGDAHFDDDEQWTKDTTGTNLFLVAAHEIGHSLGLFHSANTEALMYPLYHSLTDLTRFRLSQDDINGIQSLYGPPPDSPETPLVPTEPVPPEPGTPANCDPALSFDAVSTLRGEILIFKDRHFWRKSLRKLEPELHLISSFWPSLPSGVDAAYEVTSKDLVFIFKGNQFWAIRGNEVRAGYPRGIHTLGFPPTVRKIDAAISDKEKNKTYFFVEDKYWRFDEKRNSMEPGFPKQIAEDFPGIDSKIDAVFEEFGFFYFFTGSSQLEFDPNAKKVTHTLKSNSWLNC
In short: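 Fluorescein- and biotin-labelled substrate captured on avidin particles after reaction; intact, uncleaved substrate retains fluorescence, so signal rises with inhibition. Activated enzyme incubated with two-fold serial compound dilutions 15 minutes at room temperature.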

Gelatinase = test: MMP inhibition by particle concentration fluorescence technique (gelatinase); details: pH 7.5; 15 min enzyme preincubation; substrate 1-3 h at room temperature; read-out: MMP Inhibition Constants, Gelatinase Ki
In short: as §1

Row | SMILES | Ki (Collagenase) | Ki (Stromelysin) | Ki (Gelatinase)
1 | CNC(=O)[C@H](CC(C)C)N1CC[C@](CC(=O)NO)(CC(C)C)C1=O [Example 32, [S-(R*,R*)]-N^3 -Hydroxy-N^1-methyl-α^1,3-bis(2-methylpropyl)-2-oxo-1,3-pyrrolidinediacetamide] | 36 nM | 730 nM | 50 nM
2 | CC(C)C[C@@]1([C@@H](CCN2C(=O)c3ccccc3C2=O)C(=O)NO)CCN(CCc2ccc(F)cc2)C1=O (relative stereo) [Example 68, 1-[2-(4-Fluorophenyl)ethyl]-α-[2-(1,3-dihydro-1,3-dioxo-2H-isoindol-2-yl)ethyl]-N-hydroxy-3-(2-methylpropyl)-2-oxo-3-pyrrolidineacetamide] | 1460 nM | 350 nM | 160 nM
3 | CC(C)C[C@@]1([C@@H](CCNC(=O)c2cccc(F)c2)C(=O)NO)CCN(CCc2ccc(F)cc2)C1=O (relative stereo) [Example 78, α-[2-[(3-Fluorobenzoyl)amino]ethyl]-1-[2-(4-fluorophenyl)ethyl]-N-hydroxy-3-(2-methylpropyl)-2-oxo-3-pyrrolidineacetamide] | 18 nM | 696 nM | 278 nM
4 | CC(C)C[C@@]1([C@@H](NS(=O)(=O)c2ccc(F)cc2)C(=O)NO)CCN(CCc2ccccc2)C1=O (relative stereo) [Example 92, α-[[(4-Fluorophenyl)sulfonyl]amino]-N-hydroxy-3-(2-methylpropyl)-2-oxo-1-(2-phenylethyl)-3-pyrrolidineacetamide] | 370 nM | 309 nM | 273 nM
5 | CC(C)C[C@@]1([C@H](CCN2C(=O)c3ccccc3C2=O)C(=O)NO)CCN(CCc2ccc(F)cc2)C1=O (relative stereo) [Example 72, 1,3-Dihydro-N-hydroxy-α-[3-(2-methylpropyl)-2-oxo-1-[2-(4-fluorophenyl)ethyl]-3-pyrrolidinyl]-1,3-dioxo-2H-isoindole-2-butanamide] | 39 nM | 640 nM | 83 nM
6 | CC(C)C[C@@]1(CC(=O)NO)CCN([C@@H](Cc2ccccc2)C(=O)N2C[C@@H](C)N[C@@H](C)C2)C1=O (relative stereo) [Example 56, [1(1S)-[1[R*(R*)],3α,5α]]-1-[2-(3,5-Dimethyl-1-piperazinyl)-2-oxo-1-(phenylmethyl)ethyl]-N-hydroxy-3-(2-methylpropyl)-2-oxo-3-pyrrolidineacetamide] | 925 nM | 2300 nM | 340 nM
7 | CCCOc1ccc2c(c1)C(=O)N(CCC(C(=O)NO)C1(CC(C)C)CCN(CCc3ccccc3)C1=O)C2=O (stereo not drawn) [Example 62, N-Hydroxy-3-(2-methylpropyl)-2-oxo-1-(2-phenylethyl)-α-[2-(5-propyloxy-1,3-dihydro-1,3-dioxo-2H-isoindol-2-yl)ethyl]-3-pyrrolidineacetamide] | 55000 nM | 369 nM | 310 nM
8 | CC(C)C[C@@]1(CC(=O)NO)CCN([C@@H](Cc2ccccc2)C(=O)Nc2ccccc2)C1=O [Example 39, [S-(R*,R*)]-N^3 -Hydroxy-3-(2-methylpropyl)-2-oxo-N^1-phenyl-α^1-(phenylmethyl)-1,3-pyrrolidinediacetamide] | 5.81 nM | 101 nM | 75.9 nM
9 | CC(C)C[C@@]1([C@@H](CCN2C(=O)c3ccccc3C2=O)C(=O)NO)CCN(Cc2ccccc2)C1=O (relative stereo) [Example 22, α-[2-(1,3-Dihydro-1,3-dioxo-2H-isoindol-2-yl)ethyl]-N-hydroxy-3-(2-methylpropyl)-2-oxo-1-(phenylmethyl)-3-pyrrolidineacetamide] | 2070 nM | 1960 nM | 1300 nM
10 | CC(C)C[C@@]1([C@@H](CCN2Cc3ccc(F)cc3C2=O)C(=O)NO)CCN(CCc2ccccc2)C1=O [Example 87, [R-(R*,S*)]-6-Fluoro-1,3-dihydro-N-hydroxy-α-[3-(2-methylpropyl)-2-oxo-1-(2-phenylethyl)-3-pyrrolidinyl]-1-oxo-2H-isoindole-2-butanamide] | 230 nM | 91 nM | 4.88 nM
11 | CC(C)C[C@@]1(CC(=O)NO)CCN([C@@H](CCc2ccccc2)C(=O)NCc2ccccc2)C1=O [Example 48, [S-(R*,R*)]-N^3 -Hydroxy-3-(2-methylpropyl)-2-oxo-α^1-(2-phenylethyl)-N^1-(phenylmethyl)-1,3-pyrrolidinediacetamide] | 72 nM | 385 nM | 160 nM
12 | CC(C)CC1(CC(=O)NO)CNN(CCc2ccccc2)C1=O (stereo not drawn) [Example 38, N-Hydroxyl-4-(2-methylpropyl)-5-oxo-1-(2-phenylethyl)-4-pyrazolidineacetamide monohydrochloride] | 13300 nM | 31200 nM | 14500 nM
13 | CNC(=O)C(Cc1ccccc1)N1CCC(CC(=O)NO)(CC(C)C)C1=O (stereo not drawn) [Example 21, N^3 -Hydroxy-N^1-methyl-3-(2-methylpropyl)-2-oxo-α^1-(phenylmethyl)-1,3-pyrrolidinediacetamide] | 22 nM | 2080 nM | 49 nM
14 | CC(C)C[C@@]1([C@@H](CCCN2C(=O)c3ccccc3C2=O)C(=O)NO)CCN(CCc2ccccc2)C1=O (relative stereo) [Example 15] | 21300 nM | 188 nM | 782 nM
15 | CNC(=O)CN1CCC(CC(=O)NO)(CC(C)C)C1=O (stereo not drawn) [Example 20, N^3 -Hydroxy-N^1-methyl-3-(2-methylpropyl)-2-oxo-1,3-pyrrolidinediacetamide] | 579 nM | 16600 nM | 3100 nM
16 | O=C(NCC[C@@H](C(=O)NO)[C@]1(CCCO)CCN(CCc2ccccc2)C1=O)c1cccc(F)c1 [Example 96, [R-(R*,S*)]-α-[2-[(3-Fluorebenzoyl)amino]ethyl]-N-hydroxy-3-(3-hydroxypropyl)-2-oxo-1-(2-phenylethyl)-3-pyrrolidineacetamide] | 12.7 nM | 8.7 nM | 0.98 nM
17 | O=C(NCC[C@@H](C(=O)NO)[C@]1(CCO)CCN(CCc2ccccc2)C1=O)c1ccc(F)c(F)c1 (relative stereo) [Example 95, α-[2-[(3,4-Difluorobenzoyl)amino]ethyl]-N-hydroxy-3-(2-hydroxyethyl)-2-oxo-1-(2-phenylethyl)-3-pyrrolidineacetamide] | 25 nM | 119 nM | 13 nM
